Source: patent US8906898B1, “Solid forms of ceftolozane” (Calixa Therapeutics, Inc., priority 2013, dated 2014)
Counter-ions that a name gives are not always drawn. Blank lines part the entries; values can stand above or below the compound they belong to.

What was measured:
[1] = Stability of HPLC sample solution in refrigerated autosampler; assay type: physicochemical; conditions: 1 mg/mL in 50 mM sodium perchlorate monohydrate, pH 4.00; 4±2° C.
Description: (§1) Ceftolozane sulfate samples are prepared at a concentration of 1 mg/mL in diluent (50 mM sodium perchlorate monohydrate, pH 4.00). The system suitability standard (SST) is prepared at a concentration of 1 mg/mL of ceftolozane sulfate containing specified impurities in diluent (50 mM sodium perchlorate monohydrate, pH 4.00). Ceftolozane samples and SST are stored in a refrigerated autosampler tray at 4±2° C. and the samples are only stable for 5 hours at this condition.

[2] = Ceftolozane precipitation time as function of solution concentration (visual assessment); assay type: physicochemical; conditions: pH 6.9, 2 to 8° C.
Description: Sterile ceftolozane compositions suitable for combination with tazobactam to form a pharmaceutical composition are prepared as a lyophilized powder from the ceftolozane sulfate comprising solid Form 2 by compounding the drug substance with excipients into an aqueous solution, aseptically filtering the solution, lyophilizing the solution, then grinding, sieving and packaging the sterile lyophilized powder. The physical stability of the bulk solution at varying concentrations was examined and concentrations up to 150 mg ceftolozane free base/g solution were found suitable. All the registration batches were prepared using 150 mg/g ceftolozane concentration in the compounding solution and this concentration is proposed for commercial manufacturing. The resulting ceftolozane composition solubility was assessed in a concentration range proposed for manufacturing, in the presence of excipients intended for use in the ceftolozane formulation for use in the pharmaceutical composition. […] Samples were adjusted to pH 6.9, held at 2 to 8° C., and visually assessed for any precipitation.

[3] = Comparative ceftolozane solvent stability test (purity by HPLC over 6 days); assay type: physicochemical
From the text: This stability study was to evaluate stability and purity of ceftolozane sulfate in different solvent systems.
Sample 1 was a solvent system used to prepare crystalline ceftolozane sulfate from a mixture of isopropanol and water, as described in Example 2b (in the absence of ethanol). Sample 2 was solvent system used to obtain crystalline ceftolozane sulfate prepared according to the procedure of U.S. Pat. No. 7,129,232, wherein the crystals were precipitated from a mixture of ethanol and water.
Sample 1 and sample 2 were maintained for 6 days (as described in Example 2a, with continuous stirring). The purity of ceftolozane in the samples in each solvent system was measured by HPLC at day 0, day 3, and day 6.
as §1
Each sample is prepared in singlet and injected twice. Only impurities >LOD (0.008% Area) are integrated. The peak area percentage for each impurity >LOD is taken directly from the chromatogram. The mean % area of each peak is calculated and the absolute difference of any peak in the two replicates cannot be >0.030%. The purity and related substances are determined based on relative area % of each peak with respect to the total peak area of the sample. The total impurities are the sum of the individual impurities >LOD.

[4] = Water content by Karl Fischer volumetric titration with Stromboli oven; assay type: physicochemical; conditions: samples equilibrated at 130° C., mean of triplicate
Description: Water content of crystalline ceftolozane sulfate (prepared according to Example 2a as Form 1) was determined using a Mettler Toledo Karl Fischer volumetric titrator V30 that was connected to a Mettler Toledo Stromboli oven sample changer. AquaStar CombiTitrant 5 (EMD; Cat. No. 1.88005.1045; Lot No. 51096) was used as the titrant and the AquaStar Combi-Methanol (EMD; Cat. No 1.88009.1045; Lot No 53046) was used as the solvent. For data processing, the LabX software version 3.1.1.0 was employed. The Hydranal Water Standard for KF-Oven (Fluka; Cat. No. 34693; Lot No. SZBB010AV) that is expected to contain 5% water was weighed accurately in duplicate at or very close to 200 mg. The crystalline ceftolozane sulfate (15-18 mg) was weighed accurately in triplicate in separate 20 mL Stromboli sample vials. The vials were sealed with aluminum seals and rubber caps. A blank vial was prepared by sealing an empty 20-mL Stromboli vial with the aluminum seal and the rubber cap. The blank vial was used to determine the background moisture in air inside the vial. […] The KF titrator passed the accuracy test as the mean of the duplicate readings for the water standard was between the acceptance range of 4.80-5.20%. Water content results for crystalline ceftolozane sulfate derived from the triplicate weighings were recorded and the mean was reported. […]

[5] = Gravimetric dynamic vapour sorption (moisture sorption/desorption, hygroscopicity); assay type: physicochemical; conditions: 25° C.
Description: Gravimetric dynamic vapor sorption data (FIG. 5) was obtained using a SMS DVS Intrinsic moisture sorption analyser, controlled by DVS Intrinsic Control software v1.0.0.30. The sample temperature was maintained at 25° C. by the instrument controls. The humidity was controlled by mixing streams of dry and wet nitrogen. The relative humidity was measured by a calibrated Rotronic probe, located near the sample. The weight change of the sample as a function of % RH was constantly monitored by the microbalance (accuracy ±0.005 mg). Approximately 40 mg of sample was placed in a tared mesh stainless basket under ambient conditions. Weight reference was established at the start of an experiment. Moisture sorption isotherm parameters were described as below: [table] The moisture sorption/desorption property of crystalline cefolozane sulfate form 2 is depicted in FIG. 5. A reversible hysteresis associated with around 23% w/w water between 0% and 90% relative humidity (RH) was observed. The DVS isotherm in FIG. 5 is consistent with the presence of two crystalline forms that can be interconverted as function of relative humidity. The presence of ceftolozane sulfate solid Form 1 and ceftolozane sulfate solid Form 2 in the sample tested to obtain the DVS isotherm in FIG. 5 was confirmed by a variable humidity XRPD (VH-XRPD) measurement, based on the XRPD diffraction angles disclosed for Form 1 and Form 2 of ceftolozane sulfate (as disclosed herein). Referring to DVS the isotherm plot in FIG. 5, the lower curve corresponds to ceftolozane sulfate in solid Form 2, and the upper curve is corresponds to ceftolozane sulfate in solid Form 1. The Y-axis of the DVS plot is change in mass. The X-axis of DVS plot refers to the percent relative humidity (RH) of the sample. Reference point 10 in FIG. 5 is the starting point of Form 2 in DVS experiment. The lower portion of the curve in FIG. 5 was obtained by measuring the change in mass of a ceftolozane sulfate sample in solid Form 2 while increasing relative humidity (RH) in the sample, starting at reference point 10 of the lower curve from reference point 10 (Form 2) and moving toward reference point 20 (Form 1). Based on the data collected, the ceftolozane sulfate in the sample converted from Form 2 to Form 1 when the sample was exposed to conditions between 50% RH (reference point 12) and 70% RH (reference point 15). Referring again to the lower curve in FIG. 5, ceftolozane sulfate in Form 1 is present in the sample from 70% RH to reference point 20, where the sample is ceftolozane sulfate is in crystalline Form 1. Referring to the upper curve in FIG. 5, from reference point 20 to reference point 30, the ceftolozane sulfate in the sample material remains as solid Form 1. From reference point 30 to around 20% RH (reference point 35 on the upper curve), the crystalline form of ceftolozane sulfate in the material transforms from Form 1 to Form 2. As the relative humidity of the sample was dropped below about 20% on the upper curve between reference point 30 and reference point 40 (0% RH), the ceftolozane sulfate became more amorphous, with some residual Form 2 remaining at reference point 40. […] Hygroscopicity of ceftolozane sulfate, Form 2 was assessed using the SMS DVS Intrinsic moisture sorption analyzer equipped with a calibrated Rotronic probe. […]

[6] = Melting point experiment (SRS Optimelt), thermal decomposition; assay type: physicochemical; conditions: scan from 100° C. to 400° C.; decomposed prior to melting
Description: Melting point experiment was performed for ceftolozane sulfate form 2 using the SRS Optimelt melting point apparatus. SRS-certified vanillin and phenacetin were used to verify the system performance. The temperature scan from 100° C. to 400° C. was performed for ceftolozane sulfate. The material decomposed prior to melting. The decomposition, as indicated by the distinct change in color, appeared to commence at about 170° C.

[7] = assay type: physicochemical
Description: Thermo Gravimetric Analysis (TGA) experiments were performed on a TA Instruments Discovery Series TGA. The calibration for temperature was carried out using certified indium. Typically, 3-15 mg of a sample was flattened into sealed aluminum pans. Data was acquired for samples with and without a pinhole. For samples with a pinhole, once crimped and sealed, the auto-sampler punched the lid of the sample with its internal puncher right before analysis of the sample. Samples were heated at 20° C./min from 30° C. to 400° C. Dry nitrogen was purged into the system during the experiment at a rate of 50 ml/min. The software used to control the instrument was TRIOS Explorer Software v5.3.0.75. TRIOS software v2.40.1838 or v2.04.04563 was used for data analysis.
Thermogravimetric analysis (TGA) and differential scanning calorimetry (DSC) thermograms are shown in FIG. 3 and FIG. 4, respectively. […] The subsequent exotherm in the thermogram is indicative of decompostion that is consistent with the observation in the melting point experiment.

time the sample solution is stable [1]: 5 h
Structure (SMILES): Cn1c(N)c(NC(=O)NCCN)c[n+]1CC1=C(C(=O)O)N2C(=O)[C@@H](NC(=O)/C(=N\OC(C)(C)C(=O)O)c3nsc(N)n3)[C@H]2SC1 [Ceftolozane sulfate, 5-amino-4-{[(2-aminoethyl)carbamoyl]amino}-2-{[(6R,7R)-7-({(2Z)-2-(5-amino-1,2,4-thiadiazol-3-yl)-2-[(1-carboxy-1-methylethoxy)imino]acetyl}amino)-2-carboxy-8-oxo-5-thia-1-azabicyclo[4.2.0]oct-2-en-3-yl]methyl}-1-methyl-1H-pyrazolium monosulfate]

relative humidity down to which Form 1 transforms to Form 2 ([5]; decreasing RH, from reference point 30): around 20 % RH
Structure (SMILES): Cn1c(N)c(NC(=O)NCCN)c[n+]1CC1=C(C(=O)O)N2C(=O)[C@@H](NC(=O)/C(=N\OC(C)(C)C(=O)O)c3nsc(N)n3)[C@H]2SC1 [ceftolozane sulfate Form 1]

hygroscopicity ([5]; RH 0 to 90%): hygroscopic
total uptake of water ([5]; at 90% relative humidity, RH 0 to 90%): 23%
reversible hysteresis, water ([5]; between 0% and 90% relative humidity): around 23 % w/w
relative humidity below which the solid became more amorphous ([5]; decreasing RH to 0%, some residual Form 2): below 20%
temperature at which decomposition commenced (change in color) [6]: about 170 °C
temperature beyond which degradation likely occurs [7]: > 181 °C
Structure (SMILES): Cn1c(N)c(NC(=O)NCCN)c[n+]1CC1=C(C(=O)O)N2C(=O)[C@@H](NC(=O)/C(=N\OC(C)(C)C(=O)O)c3nsc(N)n3)[C@H]2SC1 [ceftolozane sulfate Form 2]

The remaining lines, values behind:

Structure (SMILES): Cn1c(N)c(NC(=O)NCCN)c[n+]1CC1=C(C(=O)[O-])N2C(=O)[C@@H](NC(=O)/C(=N\OC(C)(C)C(=O)O)c3nsc(N)n3)[C@H]2SC1 [Ceftolozane, (6R,7R)-3-[(5-amino-4-{[(2-aminoethyl)carbamoyl]amino}-1-methyl-1H-pyrazol-2-ium-2-yl)methyl]-7-({(2Z)-2-(5-amino-1,2,4-thiadiazol-3-yl)-2-[(1-carboxy-1-methylethoxy)imino]acetyl}amino)-8-oxo-5-thia-1-azabicyclo[4.2.0]oct-2-ene-2-carboxylate]
Time to Precipitate ([2]; ceftolozane sulfate 149 mg/g (free base 130 mg/g), with excipients): >24 hours^a
Time to Precipitate ([2]; ceftolozane sulfate 172 mg/g (free base 150 mg/g), with excipients): >48 h
Time to Precipitate ([2]; ceftolozane sulfate 178 mg/g (free base 156 mg/g), last observation at 24 hour): >24 hours^1)
Time to Precipitate ([2]; ceftolozane sulfate 189 mg/g (free base 165 mg/g), with excipients): <18 h
Time to Precipitate ([2]; ceftolozane sulfate 200 mg/g (free base 174 mg/g), with excipients): 2 h
purity of ceftolozane after 6-day stability test ([3]; aqueous ethanol solution, methods of U.S. Pat. No. 7,129,232): about 68%
purity of ceftolozane at start of 6-day stability test ([3]; aqueous ethanol solution, precipitation per U.S. Pat. No. 7,129,232): about 97%
purity of ceftolozane after 6-day stability test ([3]; process using isopropanol (Example 2a), liquid phase): about 82%

Structure (SMILES): Cn1c(N)c(NC(=O)NCCN)c[n+]1CC1=C(C(=O)O)N2C(=O)[C@@H](NC(=O)/C(=N\OC(C)(C)C(=O)O)c3nsc(N)n3)[C@H]2SC1.O=S(=O)([O-])O [Example 1, 7β-[(Z)-2-(5-amino-1,2,4-thiadiazol-3-yl)-2-(1-carboxy-1-methylethoxyimino)acetamido]-3-{3-amino-4-[3-(2-aminoethyl)ureido]-2-methyl-1-pyrazolio}methyl-3-cephem-4-carboxylic acid hydrogen sulfate]
water content by weight [4]: about 26.3%
